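Tested at 5 concentrations; 48 h exposure; 96-well plates; endpoints linearly interpolated, else capped at highest concentration. Definition used: TGI = concentration required for complete inhibition of growth.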
Experiments:
Assay in all cases: growth of human tumour cells (NCI), 48 h
786-0 renal = system: 786-0 renal
A498 renal = system: A498 renal
A549 NSCLC = system: A549 NSCLC
ACHN renal = system: ACHN renal
BT-549 breast = system: BT-549 breast
CAKI-1 renal = system: CAKI-1 renal
COLO 205 colon = system: COLO 205 colon
DU-145 prostate = system: DU-145 prostate
EKVX NSCLC = system: EKVX NSCLC
HCC-2998 colon = system: HCC-2998 colon
HCT-116 colon = system: HCT-116 colon
HCT-15 colon = system: HCT-15 colon
HOP-62 NSCLC = system: HOP-62 NSCLC
HOP-92 NSCLC = system: HOP-92 NSCLC
HS 578T breast = system: HS 578T breast
HT29 colon = system: HT29 colon
IGROV1 ovarian = system: IGROV1 ovarian
K-562 leukemia = system: K-562 leukemia
KM12 colon = system: KM12 colon
M14 melanoma = system: M14 melanoma
MALME-3M melanoma = system: MALME-3M melanoma
MCF7 breast = system: MCF7 breast
MDA-MB-231 breast = system: MDA-MB-231 breast
MDA-MB-435 = system: MDA-MB-435
MDA-N = system: MDA-N
MOLT-4 leukemia = system: MOLT-4 leukemia
NCI-H23 lung = system: NCI-H23 lung
NCI-H460 lung = system: NCI-H460 lung
NCI-H522 lung = system: NCI-H522 lung
NCI/ADR-RES ovarian = system: NCI/ADR-RES ovarian
OVCAR-3 ovarian = system: OVCAR-3 ovarian
OVCAR-4 ovarian = system: OVCAR-4 ovarian
OVCAR-5 ovarian = system: OVCAR-5 ovarian
OVCAR-8 ovarian = system: OVCAR-8 ovarian
PC-3 prostate = system: PC-3 prostate
RPMI-8226 leukemia = system: RPMI-8226 leukemia
RXF 393 renal = system: RXF 393 renal
SF-268 CNS = system: SF-268 CNS
SF-295 CNS = system: SF-295 CNS
SK-MEL-2 melanoma = system: SK-MEL-2 melanoma
SK-MEL-28 melanoma = system: SK-MEL-28 melanoma
SK-MEL-5 melanoma = system: SK-MEL-5 melanoma
SK-OV-3 ovarian = system: SK-OV-3 ovarian
SNB-19 CNS = system: SNB-19 CNS
SNB-75 CNS = system: SNB-75 CNS
SW-620 colon = system: SW-620 colon
TK-10 renal = system: TK-10 renal
U251 CNS = system: U251 CNS
UACC-257 melanoma = system: UACC-257 melanoma
UACC-62 melanoma = system: UACC-62 melanoma
UO-31 renal = system: UO-31 renal

Measured: TGI

CCOP(=O)(Nc1ccccc1P(=O)(OCC)OCC)OCC
> 100 µM: all assays above

Reference: PubChem BioAssay (NCI)
